ChEMBL document CHEMBL1148631, “Synthesis of cyclopentenyl carbocyclic nucleosides as potential antiviral agents against orthopoxviruses and SARS” (J Med Chem, 2006)

How the values were obtained:
[1] = system: SARS-CoV; test: Antiviral activity against SARS coronavirus; assay type: functional, organism-based; details: Severe acute respiratory syndrome-related coronavirus
[2] = system: Cowpox virus; test: Selective index against Cowpox virus; assay type: functional
[3] = system: SARS-CoV; test: Selective index against SARS coronavirus; assay type: functional, Severe acute respiratory syndrome-related coronavirus
[4] = system: Venezuelan equine encephalitis virus; test: Antiviral activity against Venezuelan equine encephalitis virus; assay type: functional, organism-based
[5] = system: Venezuelan equine encephalitis virus; test: Cytotoxicity against Venezuelan equine encephalitis virus; assay type: organism-based
[6] = system: Venezuelan equine encephalitis virus; test: Selective index against Venezuelan equine encephalitis virus; assay type: functional
[7] = system: Yellow fever virus; test: Cytotoxicity against Yellow fever virus; assay type: organism-based
[8] = system: Yellow fever virus; test: Selective index against Yellow fever virus; assay type: functional
[9] = system: West Nile virus; test: Cytotoxicity against West Nile virus; assay type: organism-based
[10] = system: Vaccinia virus; test: Antiviral activity against Vaccinia virus; assay type: functional, organism-based; details: Orthopoxvirus vaccinia
[11] = Cytotoxicity against Vaccinia virus; assay type: organism-based; details: Orthopoxvirus vaccinia
[12] = system: Cowpox virus; test: Antiviral activity against Cowpox virus; assay type: functional, organism-based
[13] = system: Vaccinia virus; test: Selective index against Vaccinia virus; assay type: functional, Orthopoxvirus vaccinia
[14] = system: Yellow fever virus; test: Antiviral activity against Yellow fever virus; assay type: functional, organism-based
[15] = Cytotoxicity against Cowpox virus; assay type: organism-based
[16] = system: West Nile virus; test: Antiviral activity against West Nile virus; assay type: functional, organism-based
[17] = system: SARS-CoV; test: Cytotoxicity against SARS coronavirus; assay type: organism-based; details: Severe acute respiratory syndrome-related coronavirus

Compound | EC50 [1] | Selectivity index [2] | Selectivity index [3] | EC50 [4] | IC50 [5] | Selectivity index [6] | IC50 [7] | Selectivity index [8] | IC50 [9] | EC50 [10] | IC50 [11] | EC50 [12] | Selectivity index [13] | EC50 [14] | IC50 [15] | EC50 [16] | IC50 [17]
NC(=O)c1cn([C@@H]2C=C(CO)[C@@H](O)[C@H]2O)nn1 | 47 µM | >7.7 | >2.1 | > 100 µM | > 100 µM | 0 | > 100 µM | 0 | > 100 µM | 0.4 µM | > 300 µM | 39 µM | >750 | > 100 µM | > 300 µM | > 100 µM | > 100 µM
NC(=O)c1ncn([C@@H]2C=C(CO)[C@@H](O)[C@H]2O)n1 | 21 µM | 0 | >4.8 | > 100 µM | > 100 µM | 0 | > 100 µM | 0 | > 100 µM | > 300 µM | > 300 µM | > 300 µM | 0 | > 100 µM | > 300 µM | > 100 µM | > 100 µM
NC(=O)c1cn([C@@H]2C=C(CO)[C@@H](O)[C@H]2O)cn1 | > 100 µM | 0 | 0 | > 100 µM | > 100 µM | 0 | > 100 µM | 0 | > 100 µM | > 300 µM | > 300 µM | > 300 µM | 0 | > 100 µM | > 300 µM | > 100 µM | > 100 µM
Nc1ccn(C[C@@H](CO)OCP(=O)(O)O)c(=O)n1 [CIDOFOVIR] | – | – | – | – | – | – | – | – | – | 6 µM | < 317 µM | – | – | – | > 317 µM | – | –
